The assay deals with Enterococcus faecalis ATCC 29212. The assay is described as follows: MIC against Enterococcus faecalis ATCC 29212. Type of assay: cell-based. Conditions: ATCC29212; Enterococcus faecalis ATCC 29212; read-out: MICs against Enterococcus faecalis, Activity. On the procedure:
Institute. Methods for Dilution Antimicrobial Susceptibility Tests for Bacteria That Grow Aerobically; Approved Standard—Seventh Edition. Document M7-A7. CLSI, Wayne, Pa., 2006; Clinical Laboratories and Standards Institute. Methods for Antimicrobial Susceptibility Testing of Anaerobic Bacteria; Approved Standard—Sixth Edition. Document M11-A6. CLSI, Wayne, Pa., 2004).
Compounds of this invention were tested for antimicrobial activity by susceptibility testing in liquid or on solid media. MICs for compounds against each strain were determined by the broth microdilution or agar dilution method according to the guidelines of the Clinical Laboratories and Standards Institute, formerly the National Committee for Clinical Laboratory Standards (Clinical Laboratories and Standards Institute. Methods for Dilution Antimicrobial Susceptibility Tests for Bacteria That Grow Aerobically; Approved Standard—Seventh Edition. Document M7-A7. CLSI, Wayne, Pa., 2006; Clinical Laboratories and Standards Institute. Methods for Antimicrobial Susceptibility Testing of Anaerobic Bacteria; Approved Standard—Sixth Edition. Document M11-A6. CLSI, Wayne, Pa., 2004).

The results in this text go back to patent US8481544B2, “Antibacterial compositions” (Biota Europe Limited, priority 2006, dated 2013).

Values after ≈ are worked out from the molar mass of the structure shown.

Regarding `CCNC(=O)Nc1nc2cc(-c3cccnc3)cc(-c3cccc(C#N)n3)c2s1` [Example 113, 1-[7-(6-Cyano-pyridin-2-yl)-5-pyridin-3-yl-benzothiazol-2-yl]-3-ethyl-urea], the MIC was under 0.25 µg/mL.

Consider `CCNC(=O)Nc1nc2cc(-c3cccnc3)cc(C(=O)OC)c2s1` [Example 151, 2-(3-Ethyl-ureido)-5-pyridin-3-yl-benzothiazole-7-carboxylic acid methyl ester], for which the MIC lay in the range of 0.25 to 1 µg/mL (≈ 0.701 to 2.81 µM). As for `CCNC(=O)Nc1nc2cc(-c3cccnc3)cc(-c3cc(OC)ncn3)c2s1` [Example 122, 1-Ethyl-3-[7-(6-methoxy-pyrimidin-4-yl)-5-pyridin-3-yl-benzothiazol-2-yl]-urea], the MIC was under 0.25 µg/mL. In the case of `CCNC(=O)Nc1nc2cc(-c3ccc(CO)nc3)cc(-c3ccccn3)c2s1` [Example 34, 1-Ethyl-3-[5-(6-hydroxymethyl-pyridin-3-yl)-7-pyridin-2-yl-benzothiazol-2-yl]-urea], the MIC is under 0.25 µg/mL. The result for `CCNC(=O)Nc1nc2cc(-c3cnn(C)c3)cc(Br)c2s1` [Example 6, 1-[7-Bromo-5-(1-methyl-1H-pyrazol-4-yl)-benzothiazol-2-yl]-3-ethyl-urea] reads 0.25 to 1 µg/mL (≈ 0.657 to 2.63 µM). On to `CCNC(=O)Nc1nc2cc(-c3cccnc3)cc(-c3ncnc4[nH]ccc34)c2s1` [Example 116, 1-Ethyl-3-[5-pyridin-3-yl-7-(7H-pyrrolo[2,3-d]pyrimidin-4-yl)-benzothiazol-2-yl]-urea], for which the MIC is under 0.25 µg/mL. Next, `CCNC(=O)Nc1nc2cc(-c3cccnc3)cc(-c3nccc(N)n3)c2s1` [Example 110, 1-[7-(4-Amino-pyrimidin-2-yl)-5-pyridin-3-yl-benzothiazol-2-yl]-3-ethyl-urea]: under 0.25 µg/mL; `CCNC(=O)Nc1nc2cc(-c3ccc(C#N)nc3)cc(-c3cccnc3)c2s1` [Example 27, 1-[5-(6-Cyano-pyridin-3-yl)-7-pyridin-3-yl-benzothiazol-2-yl]-3-ethyl-urea]: under 0.25 µg/mL; `CCNC(=O)Nc1nc2cc(-c3cccnc3)cc(-c3ccnc(N)n3)c2s1` [Example 114, 1-[7-(2-Amino-pyrimidin-4-yl)-5-pyridin-3-yl-benzothiazol-2-yl]-3-ethyl-urea]: under 0.25 µg/mL.

As to `CCNC(=O)Nc1nc2cc(-c3cccnc3)cc(C3CC3)c2s1` [Example 79, 1-(7-Cyclopropyl-5-pyridin-3-yl-benzothiazol-2-yl)-3-ethyl-urea], the MIC was in the range of 0.25 to 1 µg/mL (≈ 0.739 to 2.95 µM). For the compound `CCNC(=O)Nc1nc2cc(-c3cncc(N)n3)cc(-c3ccccn3)c2s1` [Example 53, 1-[5-(6-Amino-pyrazin-2-yl)-7-pyridin-2-yl-benzothiazol-2-yl]-3-ethyl-urea], the MIC was under 0.25 µg/mL. For the compound `CCNC(=O)Nc1nc2cc(-c3cccnc3)cc(-c3ccc(N)cn3)c2s1` [Example 99, 1-[7-(5-Amino-pyridin-2-yl)-5-pyridin-3-yl-benzothiazol-2-yl]-3-ethyl-urea], the MIC was under 0.25 µg/mL.

`CCNC(=O)Nc1nc2cc(-c3cnc(N)nc3)cc(-c3ccccn3)c2s1` [Example 154, 1-[5-(2-Amino-pyrimidin-5-yl)-7-pyridin-2-yl-benzothiazol-2-yl]-3-ethyl-urea]: the MIC was under 0.25 µg/mL. For `CCNC(=O)Nc1nc2cc(-c3cccnc3)cc(-c3ncccc3N)c2s1` [Example 94, 1-[7-(3-Amino-pyridin-2-yl)-5-pyridin-3-yl-benzothiazol-2-yl]-3-ethyl-urea], the MIC lay in the range of 2 to 16 µg/mL (≈ 5.12 to 41 µM). The result for `CCNC(=O)Nc1nc2cc(-c3ccccn3)cc(-c3cnc(N)nc3)c2s1` [Example 74, 1-[7-(2-Amino-pyrimidin-5-yl)-5-pyridin-2-yl-benzothiazol-2-yl]-3-ethyl-urea] reads 2 to 16 µg/mL (≈ 5.11 to 40.9 µM); that for `CCNC(=O)Nc1nc2cc(-c3ccc(NC(C)=O)nc3)cc(-c3cnccn3)c2s1` [Example 134, N-{5-[2-(3-Ethyl-ureido)-7-pyrazin-2-yl-benzothiazol-5-yl]-pyridin-2-yl}-acetamide], under 0.25 µg/mL; that for `CCNC(=O)Nc1nc2cc(-c3ccoc3)cc(-c3ccccn3)c2s1` [Example 37, 1-Ethyl-3-(5-furan-3-yl-7-pyridin-2-yl-benzothiazol-2-yl)-urea], 0.25 to 1 µg/mL (≈ 0.686 to 2.74 µM). Turning to `CCNC(=O)Nc1nc2cc(-c3cccnc3)cc(-c3nccc4cc[nH]c34)c2s1` [Example 115, 1-Ethyl-3-[5-pyridin-3-yl-7-(1H-pyrrolo[2,3-c]pyridin-7-yl)-benzothiazol-2-yl]-urea], the MIC is under 0.25 µg/mL. With `C=CCc1cc(-c2cccnc2)cc2nc(NC(=O)NCC)sc12` [Example 156, 1-(7-Allyl-5-pyridin-3-yl-benzothiazol-2-yl)-3-ethyl-urea], the MIC was 0.25 to 1 µg/mL (≈ 0.739 to 2.95 µM).

As to `CCNC(=O)Nc1nc2cc(-c3cnc(C#N)nc3)cc(-c3cccnc3)c2s1` [Example 32, 1-[5-(2-Cyano-pyrimidin-5-yl)-7-pyridin-3-yl-benzothiazol-2-yl]-3-ethyl-urea], the MIC was 2 to 16 µg/mL (≈ 4.98 to 39.9 µM). The result for `CCNC(=O)Nc1nc2cc(-c3ccc(C)nn3)cc(-c3cccnc3)c2s1` [Example 46, 1-Ethyl-3-[5-(6-methyl-pyridazin-3-yl)-7-pyridin-3-yl-benzothiazol-2-yl]-urea] reads 2 to 16 µg/mL (≈ 5.12 to 41 µM). On to `CCNC(=O)Nc1nc2cc(-c3cccnc3)cc(-c3cccn3C)c2s1` [Example 11, 1-Ethyl-3-[7-(1-methyl-1H-pyrrol-2-yl)-5-pyridin-3-yl-benzothiazol-2-yl]-urea], for which the MIC lay within 0.25 to 1 µg/mL (≈ 0.662 to 2.65 µM). Next, `CCNC(=O)Nc1nc2cc(-c3cncc(C(=O)NCCN(C)C)c3)cc(-c3ccccn3)c2s1` [Example 64, N-(2-Dimethylamino-ethyl)-5-[2-(3-ethyl-ureido)-7-pyridin-2-yl-benzothiazol-5-yl]-nicotinamide]: 2 to 16 µg/mL (≈ 4.08 to 32.7 µM). As to `CCNC(=O)Nc1nc2cc(-c3cccnc3)cc(-c3cc[nH]n3)c2s1` [Example 82, 1-Ethyl-3-[7-(1H-pyrazol-3-yl)-5-pyridin-3-yl-benzothiazol-2-yl]-urea], the MIC was in the range of 0.25 to 1 µg/mL (≈ 0.686 to 2.74 µM).

For `CCNC(=O)Nc1nc2cc(-c3cnc4c(c3)CCC(=O)N4)cc(-c3ccccn3)c2s1` [Example 71, 1-Ethyl-3-[5-(7-oxo-5,6,7,8-tetrahydro-[1,8]naphthyridin-3-yl)-7-pyridin-2-yl-benzothiazol-2-yl]-urea], the MIC is under 0.25 µg/mL. The result for `CCNC(=O)Nc1nc2cc(-c3cccnc3)cc(C(=O)NCC)c2s1` [Example 152, 2-(3-Ethyl-ureido)-5-pyridin-3-yl-benzothiazole-7-carboxylic acid ethylamide] reads 2 to 16 µg/mL (≈ 5.41 to 43.3 µM); that for `CCNC(=O)Nc1nc2cc(-c3ccccn3)cc(-c3cccnc3)c2s1` [Example 155, 1-Ethyl-3-(5-pyridin-2-yl-7-pyridin-3-yl-benzothiazol-2-yl)-urea], 2 to 16 µg/mL (≈ 5.33 to 42.6 µM).

As for `CCNC(=O)Nc1nc2cc(-c3cnc(N)nc3)cc(-c3cnc(N)nc3)c2s1` [Example 145, 1-[5,7-Bis-(2-amino-pyrimidin-5-yl)-benzothiazol-2-yl]-3-ethyl-urea], the MIC lay within 2 to 16 µg/mL (≈ 4.91 to 39.3 µM). The result for `CCNC(=O)Nc1nc2cc(-c3cccnc3)cc(-c3cccnc3OC)c2s1` [Example 85, 1-Ethyl-3-[7-(2-methoxy-pyridin-3-yl)-5-pyridin-3-yl-benzothiazol-2-yl]-urea] reads 0.25 to 1 µg/mL (≈ 0.617 to 2.47 µM). Next, `CCNC(=O)Nc1nc2cc(-c3cccnc3)cc(-c3cccnc3F)c2s1` [Example 76, 1-Ethyl-3-[7-(2-fluoro-pyridin-3-yl)-5-pyridin-3-yl-benzothiazol-2-yl]-urea]: 0.25 to 1 µg/mL (≈ 0.635 to 2.54 µM); `CCNC(=O)Nc1nc2cc(-c3cnc4c(c3)CNCC4)cc(-c3ccccn3)c2s1` [Example 65, 1-Ethyl-3-[7-pyridin-2-yl-5-(5,6,7,8-tetrahydro-[1,6]naphthyridin-3-yl)-benzothiazol-2-yl]-urea]: 0.25 to 1 µg/mL (≈ 0.581 to 2.32 µM); `CCNC(=O)Nc1nc2cc(-c3cccnc3)cc(-c3cnn(CCN4CCOCC4)c3)c2s1` [Example 81, 1-Ethyl-3-{7-[1-(2-morpholin-4-yl-ethyl)-1H-pyrazol-4-yl]-5-pyridin-3-yl-benzothiazol-2-yl}-urea]: 2 to 16 µg/mL (≈ 4.19 to 33.5 µM).

With `CCNC(=O)Nc1nc2cc(-c3cccnc3)cc(-c3ccc(C#N)cn3)c2s1` [Example 107, 1-[7-(5-Cyano-pyridin-2-yl)-5-pyridin-3-yl-benzothiazol-2-yl]-3-ethyl-urea], the MIC is under 0.25 µg/mL. Next, `CCNC(=O)Nc1nc2cc(-c3cccnc3)cc(-c3nccs3)c2s1` [Example 92, 1-Ethyl-3-(5-pyridin-3-yl-7-thiazol-2-yl-benzothiazol-2-yl)-urea]: under 0.25 µg/mL; `CCNC(=O)Nc1nc2cc(-c3cncnc3)cc(-c3ccccn3)c2s1` [Example 35, 1-Ethyl-3-(7-pyridin-2-yl-5-pyrimidin-5-yl-benzothiazol-2-yl)-urea]: under 0.25 µg/mL. Turning to `CCNC(=O)Nc1nc2cc(-c3cccnc3)cc(-c3ccc(CN4CCOCC4)cn3)c2s1` [Example 120, 1-Ethyl-3-[7-(5-morpholin-4-ylmethyl-pyridin-2-yl)-5-pyridin-3-yl-benzothiazol-2-yl]-urea], the MIC was 0.25 to 1 µg/mL (≈ 0.527 to 2.11 µM). Next, `CCNC(=O)Nc1nc2cc(-c3ccc(NC(C)=O)nc3)cc(-c3nccc4cc[nH]c34)c2s1` [Example 137, N-{5-[2-(3-Ethyl-ureido)-7-(1H-pyrrolo[2,3-c]pyridin-7-yl)-benzothiazol-5-yl]-pyridin-2-yl}-acetamide]: 0.25 to 1 µg/mL (≈ 0.53 to 2.12 µM); `CCNC(=O)Nc1nc2cc(-c3ccc(CNC)nc3)cc(-c3ccccn3)c2s1` [Example 67, 1-Ethyl-3-[5-(6-methylaminomethyl-pyridin-3-yl)-7-pyridin-2-yl-benzothiazol-2-yl]-urea]: 0.25 to 1 µg/mL (≈ 0.597 to 2.39 µM).
